The results in this text go back to ChEMBL document CHEMBL3596188, “Synthesis and structure-activity relationship of aminoarylthiazole derivatives as correctors of the chloride transport defect in cystic fibrosis” (Eur J Med Chem, 2015).

Activity calls are given as the source filed them. How the calls were made is not given here.

For this assay, the system named is Cystic fibrosis transmembrane conductance regulator (Homo sapiens), P13569 [F508del]. Description: Corrector activity at CFTR F508del mutant (unknown origin) expressed in human CFBE41o cells assessed as iodide influx at 10 uM after 24 hrs by HS-YFP assay. It counts as cell-based.
Cystic fibrosis transmembrane conductance regulator (Homo sapiens), P13569 [F508del], sequence (P13569 as listed by the source): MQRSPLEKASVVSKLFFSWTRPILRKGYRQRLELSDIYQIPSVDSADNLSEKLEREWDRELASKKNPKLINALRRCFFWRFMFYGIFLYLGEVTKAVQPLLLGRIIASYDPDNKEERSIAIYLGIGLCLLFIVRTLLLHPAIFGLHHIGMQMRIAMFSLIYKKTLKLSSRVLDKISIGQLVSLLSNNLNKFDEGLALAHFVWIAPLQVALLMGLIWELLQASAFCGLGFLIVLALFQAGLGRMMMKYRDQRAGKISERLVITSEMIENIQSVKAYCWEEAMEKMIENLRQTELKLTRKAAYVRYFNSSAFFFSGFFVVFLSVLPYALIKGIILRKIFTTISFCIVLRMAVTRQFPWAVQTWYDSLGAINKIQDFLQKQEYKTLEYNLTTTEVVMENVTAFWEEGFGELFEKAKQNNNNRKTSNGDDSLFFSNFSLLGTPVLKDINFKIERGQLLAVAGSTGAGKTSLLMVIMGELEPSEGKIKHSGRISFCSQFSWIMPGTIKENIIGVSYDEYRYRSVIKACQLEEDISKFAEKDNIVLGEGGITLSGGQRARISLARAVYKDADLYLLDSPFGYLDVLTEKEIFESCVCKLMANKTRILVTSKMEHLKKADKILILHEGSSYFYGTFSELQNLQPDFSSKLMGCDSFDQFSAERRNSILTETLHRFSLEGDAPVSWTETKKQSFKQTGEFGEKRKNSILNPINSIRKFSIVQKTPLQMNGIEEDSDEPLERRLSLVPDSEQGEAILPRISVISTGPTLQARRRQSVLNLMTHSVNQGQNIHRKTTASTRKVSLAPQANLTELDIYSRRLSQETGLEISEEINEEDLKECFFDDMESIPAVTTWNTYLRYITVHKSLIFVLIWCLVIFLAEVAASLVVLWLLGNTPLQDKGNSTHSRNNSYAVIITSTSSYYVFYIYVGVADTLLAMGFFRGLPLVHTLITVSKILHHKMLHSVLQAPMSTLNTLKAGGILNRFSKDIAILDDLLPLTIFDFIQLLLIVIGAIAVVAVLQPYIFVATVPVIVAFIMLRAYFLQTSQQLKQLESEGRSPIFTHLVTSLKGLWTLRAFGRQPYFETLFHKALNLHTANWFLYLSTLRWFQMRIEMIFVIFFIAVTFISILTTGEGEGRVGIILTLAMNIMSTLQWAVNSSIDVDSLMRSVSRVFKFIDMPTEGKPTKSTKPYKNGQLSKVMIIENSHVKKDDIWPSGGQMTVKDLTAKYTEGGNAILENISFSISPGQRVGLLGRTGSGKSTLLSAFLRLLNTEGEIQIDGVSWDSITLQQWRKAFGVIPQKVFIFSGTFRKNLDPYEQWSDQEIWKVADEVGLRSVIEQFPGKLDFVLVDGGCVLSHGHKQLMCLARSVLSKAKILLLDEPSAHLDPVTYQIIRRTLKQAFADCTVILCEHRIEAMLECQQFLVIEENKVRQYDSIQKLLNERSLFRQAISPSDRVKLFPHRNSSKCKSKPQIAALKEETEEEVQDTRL
As for `CSc1cccc(Nc2nc(-c3ccc(C)cc3C)cs2)c1`, the result was inactive.

On to `CSc1cccc(Nc2nc(-c3ccc(C(F)(F)F)cc3)cs2)c1`, for which the result was inactive.

Turning to `CSc1cccc(Nc2nc(-c3c(-c4ccccc4)noc3C)cs2)c1`, the result was inactive.

Regarding `CSc1cccc(Nc2nc(-c3ccccn3)cs2)c1`, the result was inactive.

Consider `CSc1cccc(Nc2nc(-c3ccc(-c4ccccn4)s3)cs2)c1`, for which the result was inactive.

For the compound `CSc1cccc(Nc2nc(-c3ccc(O)c(O)c3)cs2)c1`, the outcome was inactive.

Consider `CSc1cccc(Nc2nc(-c3cc4ccccc4oc3=O)cs2)c1`, for which the outcome was inactive.

In the case of `O=C(Nc1nc(-c2ccc(Br)cc2)cs1)c1ccccc1`, the result was inactive.

On to `CSc1cccc(Nc2nc(-c3ccc(Cl)cc3Cl)cs2)c1`, for which the result was inactive.

Turning to `COc1ccccc1-c1csc(Nc2cccc(SC)c2)n1`, the result was inactive.

Take `O=C(Nc1nc(-c2ccc(Br)cc2)cs1)c1ccccc1O`: the outcome was inactive.

Turning to `CSc1cccc(Nc2nc(-c3cccc(OCC(=O)O)c3)cs2)c1`, the result was inactive.

`CSc1cccc(Nc2nc(-c3ccc4c(c3)C(C)(C)CCC4(C)C)cs2)c1`: the result was inactive.

With `CSc1cccc(Nc2nc(Cc3ccc(Br)cc3)cs2)c1`, the result was inactive.

With `Brc1ccc(-c2csc(N(Cc3ccccc3)Cc3ccccc3)n2)cc1`, the outcome was inactive.

Consider `CSc1cccc(Nc2nc(-c3ccc(Cl)c([N+](=O)[O-])c3)cs2)c1`, for which the result was inactive.

Turning to `CSc1cccc(Nc2nc(-c3cc(C(C)(C)C)c(O)c(C(C)(C)C)c3)cs2)c1`, the result was inactive.

As for `CSc1cccc(Nc2nc(-c3ccc4c(c3)OCCCO4)cs2)c1`, the result was inactive.

Turning to `CSc1cccc(Nc2nc(-c3cccc(OCC(=O)OC(C)(C)C)c3)cs2)c1`, the outcome was inactive.

`COc1ccc(-c2csc(Nc3cccc(SC)c3)n2)cc1Cl`: the result was inactive.

Take `CSc1cccc(Nc2nc(-c3cnc4ccccc4c3)cs2)c1`: the outcome was inactive.

Regarding `CSc1cccc(Nc2nc(-c3cccc(C(F)(F)F)c3)cs2)c1`, the outcome was inactive.

For `CSc1cccc(Nc2nc(-c3ccc4c(c3)NC(=O)CS4)cs2)c1`, the outcome was inactive.

Turning to `CSc1cccc(Nc2nc(-c3cccc(SC)c3)cs2)c1`, the result was inactive.

As for `Sc1cccc(Nc2nc(-c3cccc(Cl)c3)cs2)c1`, the outcome was inactive.

As to `CC(=O)Oc1ccccc1C(=O)Nc1nc(-c2ccc(Br)cc2)cs1`, the outcome was inactive.

For the compound `CSc1cccc(N(C)c2nc(-c3cccc(Cl)c3)cs2)c1`, the result was inactive.

For `CSc1cccc(Nc2nc(-c3cc(Cl)c(O)c(Cl)c3)cs2)c1`, the result was Active.

For `CSc1cccc(Nc2nc(-c3cccc(O)c3)cs2)c1`, the outcome was inactive.

For `CSc1cccc(Nc2nc(-c3ccc4c(c3)ncn4C)cs2)c1`, the result was inactive.

Regarding `O=C(Nc1nc(-c2ccc(Br)cc2)cs1)c1ccncc1`, the result was inactive.

With `CSc1cccc(Nc2nc(-c3nc4ccccc4s3)cs2)c1`, the outcome was inactive.

`CSc1cccc(Nc2nc(-c3cc(C)cs3)cs2)c1`: the result was inactive.

For the compound `CSc1cccc(Nc2nc(-c3ccccc3C)cs2)c1`, the outcome was inactive.

On to `CSc1cccc(Nc2nc(-c3cc(OC(C)=O)c(OC(C)=O)c(OC(C)=O)c3)cs2)c1`, for which the result was inactive.

For the compound `CSc1cccc(Nc2nc(-c3nc(C)cs3)cs2)c1`, the result was inactive.

Turning to `CSc1cccc(Nc2nc(-c3cc(OCC(=O)O)c(OCC(=O)O)c(OCC(=O)O)c3)cs2)c1`, the outcome was inactive.

Take `COc1ccc(-c2csc(Nc3cccc(SC)c3)n2)c(OC)c1`: the outcome was inactive.

Turning to `CSc1cccc(Nc2nc(-c3ccc(F)c(Cl)c3)cs2)c1`, the result was Active.

Consider `CCCOc1ccc(-c2csc(Nc3cccc(SC)c3)n2)cc1`, for which the result was inactive.

For the compound `CSc1cccc(Nc2nc(-c3cccc(C)c3)cs2)c1`, the result was inactive.

For the compound `CSc1cccc(Nc2nc(-c3c(Cl)ccc(F)c3Cl)cs2)c1`, the outcome was inactive.

Regarding `Nc1nc(-c2ccc(Br)cc2)cs1`, the result was inactive.

With `CSc1cccc(Nc2nc(-c3cccc(NC(C)=O)c3)cs2)c1`, the outcome was inactive.

On to `CCCSc1cccc(Nc2nc(-c3cccc(Cl)c3)cs2)c1`, for which the outcome was inactive.

For `CCSc1cccc(Nc2nc(-c3cccc(Cl)c3)cs2)c1`, the outcome was inactive.

For `CCN(CC)c1ccc(-c2csc(Nc3cccc(SC)c3)n2)cc1`, the outcome was inactive.

For the compound `CSc1cccc(Nc2nc(-c3ccsc3)cs2)c1`, the outcome was inactive.

Take `CSc1cccc(Nc2nc(-c3ccc(Cl)c(C)c3)cs2)c1`: the result was inactive.

Regarding `CSc1cccc(Nc2nc(-c3cccc(Cl)c3Cl)cs2)c1`, the outcome was inactive.

Regarding `CSc1cccc(Nc2nc(-c3ccc4sccc4c3)cs2)c1`, the result was Active.

As for `CSc1cccc(Nc2nc(-c3cc(Cl)ccc3O)cs2)c1`, the outcome was Active.

Consider `COc1ccc(-c2csc(Nc3cccc(SC)c3)n2)cc1`, for which the outcome was inactive.

For the compound `CSc1cccc(Nc2nc(-c3cc(Cl)cc(Cl)c3F)cs2)c1`, the result was inactive.

Take `CSc1cccc(Nc2nc(-c3cccc(Cl)c3)c(C)s2)c1`: the result was inactive.

For `CSc1cccc(Nc2nc(-c3ccccc3)c(C(=O)c3ccccc3)s2)c1`, the result was inactive.

With `CSc1cccc(Nc2nc(-c3cc4ccccc4o3)cs2)c1`, the result was inactive.

As to `CSc1cccc(Nc2nc(-c3ccc(CCCl)cc3)cs2)c1`, the outcome was inactive.

With `CSc1cccc(Nc2nc(-c3ccc(CC(F)(F)F)cc3)cs2)c1`, the result was inactive.

Consider `CSc1cccc(Nc2nc(-c3cccc([N+](=O)[O-])c3)cs2)c1`, for which the result was inactive.

With `CSc1cccc(Nc2nc(-c3nnn(-c4cc(Cl)cc(Cl)c4)c3C)cs2)c1`, the result was inactive.

Regarding `CSc1cccc(Nc2nc(-c3ccc(Br)c([N+](=O)[O-])c3)cs2)c1`, the outcome was inactive.

`CSc1cccc(Nc2nc(-c3ccco3)cs2)c1`: the outcome was inactive.

Turning to `CSc1cccc(Nc2nc(-c3cc(Br)ccc3O)cs2)c1`, the outcome was inactive.

For the compound `CSc1cccc(Nc2nc(-c3cc(Cl)ccc3Cl)cs2)c1`, the outcome was inactive.

Consider `Brc1ccc(-c2csc(NC3CCCCC3)n2)cc1`, for which the outcome was inactive.

In the case of `CSc1cccc(Nc2nc(-c3ccc([N+](=O)[O-])cc3)cs2)c1`, the outcome was inactive.

Take `CSc1cccc(Nc2nc(-c3cccnc3)cs2)c1`: the outcome was inactive.

As for `CSc1cccc(Nc2nc(-c3ccc(Cl)cc3)c(-c3ccc(C)cc3)s2)c1`, the result was inactive.

Take `CSc1cccc(Nc2nc(-c3ccc(S(C)(=O)=O)cc3)cs2)c1`: the result was inactive.

Turning to `CSc1cccc(Nc2nc(-c3ccc4c(c3)OCCO4)cs2)c1`, the result was inactive.

For `CSc1cccc(Nc2nc(-c3cn(-c4ccccc4)c(C)n3)cs2)c1`, the outcome was inactive.

For `CCCCCc1ccc(-c2csc(Nc3cccc(SC)c3)n2)cc1`, the result was inactive.

`CSc1cccc(Nc2nc(C)cs2)c1`: the outcome was inactive.

For the compound `CSc1cccc(Nc2nc(-c3nc4ccccc4n3C)cs2)c1`, the outcome was inactive.

On to `CSc1cccc(Nc2nc(-c3cccc(I)c3)cs2)c1`, for which the result was inactive.

For `CSc1cccc(Nc2nc(-c3cc(C)n(-c4ccc(Cl)cc4)c3C)cs2)c1`, the result was inactive.

As for `CSc1cccc(Nc2nc(-c3cc(Cl)cc(Cl)c3O)cs2)c1`, the outcome was inactive.

With `CSc1cccc(Nc2nc(-c3cccc(Br)c3)cs2)c1`, the outcome was Active.

Take `CCc1ccc(Nc2nc(-c3cccc(Cl)c3)cs2)cc1SC`: the result was Active.

In the case of `CSc1cccc(Nc2nc3ccc(Br)cc3s2)c1`, the result was inactive.

With `CSc1cccc(Nc2nc(CC(=O)Nc3ccccc3)cs2)c1`, the result was inactive.

Regarding `CSc1cccc(Nc2nc(-c3ccc(Br)cc3)c(C)s2)c1`, the result was inactive.

As to `CSc1cccc(Nc2nc(-c3cc(F)cc(Cl)c3)cs2)c1`, the result was inactive.

As to `CSc1cccc(Nc2nc(-c3cc(Cl)cc(OC(F)(F)F)c3)cs2)c1`, the result was inactive.

Turning to `CSc1cccc(N(Cc2ccccc2)c2nc(-c3cccc(Cl)c3)cs2)c1`, the result was inactive.

Turning to `CSc1cccc(Nc2nc(-c3cnc(CS(=O)(=O)c4ccccn4)s3)cs2)c1`, the result was inactive.

Consider `CCCCCc1csc(-c2csc(Nc3cccc(SC)c3)n2)c1`, for which the result was inactive.

Turning to `CSc1cccc(Nc2nc(-c3ccccc3)c(C)s2)c1`, the outcome was inactive.

As for `COc1cc2c(cc1OC)CN(c1csc(Nc3cccc(SC)c3)n1)CC2`, the result was inactive.

For the compound `Brc1ccc(-c2csc(N3CCCCC3)n2)cc1`, the outcome was inactive.

Regarding `CSc1cccc(Nc2nc(-c3ccccc3Cl)cs2)c1`, the outcome was inactive.

In the case of `CSc1cccc(Nc2nc(-c3cccc(F)c3)cs2)c1`, the outcome was inactive.

For the compound `Brc1ccc(-c2csc(NCc3ccccc3)n2)cc1`, the outcome was inactive.

In the case of `CSc1cccc(Nc2nc(-c3cc(-c4ccc(Cl)cc4)no3)cs2)c1`, the outcome was inactive.
